{"source": "patent US8048924B2", "about": "“Methods and compositions employing 4-aminophenylacetic acid compounds” (Biocon Limited, priority 2001, dated 2011)", "key": {"[1]": {"experiment": "Single oral dose plasma pharmacokinetics and elimination of APAZA and metabolites in mice", "assay_type": "in vivo, male CD-1 mice", "settings": "single oral dose of APAZA, male CD-1 mice", "description": "Initial single dose pharmacokinetic studies with the APAZA™ compound have been conducted in dogs and mice. A study was completed in order to determine the plasma pharmacokinetics and elimination of the APAZA™ compound and its metabolites (5-ASA, 4-APAA, 5-aceASA and 4-aceAPAA) following single oral dose administration to male CD-1 mice. […] When normalized to molar values, the Cmax values for all the APAZA™ metabolites were less than APAZA™; the values ranged from 2.68 to 13.8 μM. However, the normalized APAZA™ AUC∞ value was not greater than all the other metabolites; these values ranged from […]. […] The Tmax values for APAZA™ and its metabolites were 1 hour and 4 hours, respectively."}, "DNBS colitis": {"tested_on": "DNBS colitis", "experiment": "Study AA-PH-003: oral and rectal APAZA and sulfasalazine in DNBS colitis", "assay_type": "in vivo, male Lewis rats", "design": "Average Diarrhea Score Day 3: scale not given here", "settings": "for Colonic Inflammation Scores: scale 0-2", "description": "Study AA-PH-003 was designed to evaluate the anti-inflammatory efficacy of oral and rectal doses of APAZATM and sulfasalazine in the DNBS colitis model in rats. […] Thirty-five adult male Lewis rats (body weight 200-250 g) were studied. […] Animal body weights and incidence of diarrhea were recorded daily. […] Animals in the DNBS groups and the parallel deionized water group were sacrificed on day 5. Laparotomies and colectomies were performed and animals were scored for the presence and severity of intestinal adhesions, strictures, inflammation, and ulceration. Colon: body weight ratios were determined and colon histopathology was performed."}, "DSS induced colitis": {"tested_on": "DSS induced colitis", "experiment": "Dextran sulfate sodium (DSS) colitis in the rat", "assay_type": "in vivo, Sprague-Dawley rats", "settings": "oral gavage bid", "description": "The effectiveness of APAZA™ and sulfasalazine in ameliorating intestinal inflammation in a model of dextran sulfate sodium (DSS) induced colitis in Sprague-Dawley rats was determined. Thirty-six male Sprague-Dawley rats that were 7-8 weeks old and weighed 240-260 g were studied. […] After completion of the treatment period, rats were euthanized and the efficacy of the test drugs in inhibiting colitis was assessed by the following: • Disease Activity Index Scoring: • Body weight • Colon wet weight: body weight ratios • Colonic Myeloperoxidase (MPO) activity • Histopathological changes of the colon"}, "[2]": {"tested_on": "Clostridium difficile toxin A-induced colitis", "experiment": "Toxin A-induced colitis, chronic oral administration in drinking water for 5 days", "assay_type": "in vivo, Sprague-Dawley rats", "description": "Eighteen adult male Sprague-Dawley rats weighing 175-222 grams were divided into 3 groups each consisting of 6 animals: • 4-APAA (AA-002) 100 mg/kg orally+Toxin A (10 μg) injected into the lumen of the colon • Vehicle (DW) orally+Toxin A (10 μg) injected into the lumen of the colon • Vehicle (DW) orally\nFollowing 5 days of 4-APAA administration in drinking water, both ketamine (67 mg/kg) and xylazine (33 mg/kg) were administered, an isolated colonic segment was surgically created, and 10 μg of Clostridium difficile toxin A was injected into the lumen of the colon. After 3 hours, the rats were euthanized and colonic inflammation was assessed by quantitating luminal fluid accumulation and myeloperoxidase (MPO) content in the colon tissue. In addition, histological evaluation of the treated colon segments was completed.\nDrug Administration. In studies using chronic administration, sulfasalazine, APAZA™, and 4-APAA were administered in the drinking water at doses ranging from 0.1-100 mg/kg·d for 5 days. Sulfasalazine and APAZA™ were initially dissolved in 0.1 N NaOH at 30 times the desired final concentration and then the pH was adjusted to 8.5 with 1 N HCl and the solution was diluted 30-fold with distilled water. 4-APAA was dissolved in water. On the fifth day, the rats were fasted overnight (with access to their drinking water±sulfasalazine, APAZA™, or 4-APAA ad lib), anesthetized, and isolated colonic segments were surgically created as described below. In studies using acute administration, the rats were pretreated by injection of 4-APAA at doses of 10 or 100 μg in 200 μl of PBS (pH 7.4) into the lumen of the colonic segment using a 27 ga syringe needle. Toxin A (10 μg) in 200 μl of PBS (pH 7.4) was tested alone or injected into the lumen of the colonic segment 30 minutes after 4-APAA using a 27 ga syringe needle.\nSurgery. Isolated colonic segments were created in male Sprague-Dawley rats (150-175 g) as described previously for isolated ileal segments (see, Gastroenterol. 111: 1272-1280 (1996) and Proc. Natl. Acad. Sci. USA 91: 947-951 (1994). Rats fasted overnight with free access to drinking water were anesthetized by intramuscular injection of 67 mg/kg ketamine:33 mg/kg xylazine. A midline abdominal incision was made and colonic segments 5 cm in length were created by ligation with 4-0 silk sutures, taking care not to disturb the vascular supply. Toxin A (10 μg) in 400 μl of PBS (pH 7.4) was injected into the lumen of the colonic segment using a 27 ga syringe needle. Control rats were prepared similarly and their colonic segments were injected with the vehicles. The midline incision was then closed with a running suture, and the rats were placed on a heating pad at 37° C. for 3 hours. After 3 hours, the rats were euthanized and samples of the treated colonic segments were taken for analysis in vitro.\nHistopathology. The severity of colonic histological damage was assessed using formalin-fixed, paraffin-embedded, H&E-stained sections.\nLuminal Fluid Accumulation. Luminal fluid accumulation was measured gravimetrically. After 3 hours of treatment, the isolated colonic segments were removed, weighed, and their lengths were measured. Luminal fluid accumulation is expressed as mg wet weight per cm length.\nMyeloperoxidase Activity. Myeloperoxidase (MPO) activity was measured as described previously (see, J. Invest. Dermatol. 78: 206-209 (1982)). Briefly, pieces of control and treated colonic segments were homogenized in 0.5% hexadecyltrimethylammonium bromide in 50 mM KH2PO4 (pH 6), freeze/thawed three times, centrifuged at 4° C. for 2 minutes, and then the absorbance of each supernatant was read at 460 nm at 0, 30, and 60 seconds after the addition of 2.9 ml of o-dianisidine dihydrochloride to 0.1 ml supernatant. The maximal change in absorbance per minute was used to calculate the units of MPO activity based on the molar absorbency index of oxidized o-dianisidine of 1.13×10^4 M^−1 cm^−1. […]"}, "[3]": {"settings": "orally + 30 mg DNBS, APAZA 200 mg/kg, sulfasalazine 265.6 mg/kg"}, "[4]": {"settings": "rectally + 30 mg DNBS, APAZA 200 mg/kg, sulfasalazine 265.6 mg/kg"}, "[5]": {"settings": "1 mg/kg·day in drinking water, 5 days"}, "[6]": {"settings": "10 mg/kg·day in drinking water, 5 days"}, "[7]": {"settings": "100 mg/kg·day in drinking water, 5 days"}, "[8]": {"settings": "100 mg/kg·day in drinking water, 5 days, toxin A 10 μg"}}, "data": [{"smiles": "CC(=O)Nc1ccc(CC(=O)O)cc1", "note": "[4-aceAPAA, (4-acetylamino-phenyl)-acetic acid, reference compound]", "values": [{"measurement": "plasma concentration at 24 hours", "setting": "[1]", "result": "below the limit of detection"}]}, {"smiles": "O=C(O)c1cc(/N=N/c2ccc(S(=O)(=O)Nc3ccccn3)cc2)ccc1O", "note": "[sulfasalazine, reference compound]", "values": [{"measurement": "reduction relative to control in net colon: body weight (% BW) ratio", "setting": "DNBS colitis; oral groups", "result": 38.4, "unit": "%"}, {"measurement": "Average Diarrhea Score Day 3", "setting": "DNBS colitis; [3]", "result": 2.4}, {"measurement": "Colon Histopathology (# severe lesions)", "setting": "DNBS colitis; [3]", "result": 8}, {"measurement": "Length of Colonic Inflammation (cm)", "setting": "DNBS colitis; [3]", "result": 2.3, "unit": "cm"}, {"measurement": "Mean Body Weight", "setting": "DNBS colitis; [3]", "result": 215.4, "unit": "g"}, {"measurement": "Mean Colon Length (cm)", "setting": "DNBS colitis; [3]", "result": 12.9, "unit": "cm"}, {"measurement": "Net Colon: Body Weight Ratio", "setting": "DNBS colitis; [3]", "result": 0.1862}, {"measurement": "Colonic Inflammation Scores", "setting": "DNBS colitis; [3]", "result": 1.4}, {"measurement": "Average Diarrhea Score Day 3", "setting": "DNBS colitis; [4]", "result": 2}, {"measurement": "Length of Colonic Inflammation (cm)", "setting": "DNBS colitis; [4]", "result": 1.8, "unit": "cm"}, {"measurement": "Mean Body Weight", "setting": "DNBS colitis; [4]", "result": 217.0, "unit": "g"}, {"measurement": "Mean Colon Length (cm)", "setting": "DNBS colitis; [4]", "result": 12.8, "unit": "cm"}, {"measurement": "Net Colon: Body Weight Ratio", "setting": "DNBS colitis; [4]", "result": 0.179}, {"measurement": "Colonic Inflammation Scores", "setting": "DNBS colitis; [4]", "result": 1}, {"measurement": "body weights, rats drinking DW versus DSS", "setting": "DSS induced colitis; days 10 and 11", "result": "statistically significant differences"}, {"measurement": "colon wet weight: body weight ratio, DSS versus DW", "setting": "DSS induced colitis; APAZA 100 mg/kg, sulfasalazine 133 mg/kg", "result": "increased"}, {"measurement": "Disease Activity Index (DAI) score", "setting": "DSS induced colitis; rats drinking 5% DSS, APAZA 100 mg/kg, sulfasalazine 133 mg/kg", "result": "significantly greater"}, {"measurement": "colonic MPO activity", "setting": "DSS induced colitis; rats receiving DSS", "result": "significant increase"}, {"measurement": "histological changes of the colon", "setting": "DSS induced colitis; rats receiving DSS", "result": "severe colitis"}, {"measurement": "toxin A-induced MPO activity, significance of inhibition", "setting": "[2]; [5]", "result": "did not significantly inhibit"}, {"measurement": "toxin A-induced luminal fluid accumulation, significance of inhibition", "setting": "[2]; [5]", "result": "did not significantly inhibit"}, {"measurement": "toxin A-induced structural damage of the colon (H&E)", "setting": "[2]; [5]", "result": "little effect"}, {"measurement": "toxin A-induced luminal fluid accumulation, significance of inhibition", "setting": "[2]; [6]", "result": "significantly inhibited"}, {"measurement": "toxin A-induced structural damage of the colon (H&E)", "setting": "[2]; [6]", "result": "little effect"}, {"measurement": "toxin A-induced MPO activity, significance of inhibition", "setting": "[2]; [7]", "result": "significantly inhibited"}, {"measurement": "toxin A-induced luminal fluid accumulation, significance of inhibition", "setting": "[2]; [7]", "result": "significantly inhibited"}, {"measurement": "toxin A-induced structural damage of the colon (H&E)", "setting": "[2]; [7]", "result": "did inhibit"}, {"measurement": "doses that significantly inhibited toxin A-induced colitis", "setting": "[2]; chronically for 5 days in drinking water, doses tested 1-100", "result": 100, "unit": "mg/kg·day"}]}, {"smiles": "O=C(O)Cc1ccc(/N=N/c2ccc(CC(=O)O)cc2)cc1", "note": "[4-APAA dimer, [4-(4-Carboxymethyl-phenylazo)-phenyl]-acetic acid]", "values": [{"measurement": "toxin A-induced MPO activity, significance of inhibition", "setting": "[2]; [7]", "result": "significantly inhibited"}, {"measurement": "toxin A-induced luminal fluid accumulation, significance of inhibition", "setting": "[2]; [7]", "result": "did not inhibit"}, {"measurement": "toxin A-induced structural damage of the colon (H&E)", "setting": "[2]; [7]", "result": "did not inhibit"}, {"measurement": "percent inhibition of toxin A-induced MPO activity", "setting": "[2]; [8]", "result": "60±9", "unit": "%"}, {"measurement": "percent inhibition of toxin A-induced luminal fluid accumulation", "setting": "[2]; [8]", "result": "21±8", "unit": "%"}]}, {"smiles": "CC(=O)Nc1ccc(O)c(C(=O)O)c1", "note": "[acetylated 5-ASA]", "values": [{"measurement": "t1/2", "setting": "[1]; plasma", "result": 11.27, "unit": "h"}, {"measurement": "plasma concentration at 24 hours", "setting": "[1]", "result": "below the limit of detection"}]}]}
